The source made the active and inactive calls.
Key:
[1] = target: Intestinal-type alkaline phosphatase (Homo sapiens, UniProt P09923); test: Dose Response confirmation of uHTS hits from a small molecule inhibitors of human intestinal alkaline phosphatase via a luminescent assay. [Related pubchem assays (depositor defined):AID2544, AID2574]; type: functional
[2] = target: Induced myeloid leukemia cell differentiation protein Mcl-1 (Homo sapiens, UniProt Q07820); type: functional
INS1 = test: beta cell apoptosis inhibitors, cytokine rescue, dose response, luminescence, retest (AID 449756); type: functional, cell-based; conditions: Rattus norvegicus;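 further: cell death triggered by IL-1 beta plus TNF-alpha plus IFN-gamma mixture; protective hits raise ATP signal compared with cytokine alone wells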
cells [3] = type: functional, cell-based
[4] = Counterscreen for AddAB inhibitors: absorbance-based bacterial cell-based high throughput dose response assay for inhibitors of bacterial viability. [Related pubchem assays (depositor defined):AID435030, AID449728, AID449731, AID488942, AID488955, AID488956]; type: functional
cells [5] = type: functional, cell-based; remark: listed apart in the source
[6] = Shn3 3'UTR reporter inhibitors, dose response, cell-based, Clone20 osteoblasts, firefly luciferase, cherry-picked (AID 624132); type: functional;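 further: firefly luciferase luminescence from reporter carrying the Shn3 3'UTR in osteoblasts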
Exodeoxyribonuclease V = target: T1, Exodeoxyribonuclease V (Escherichia coli (strain K12), UniProt P04993+P07648+P08394); test: E. coli RecBCD inhibitors, dose response, counter-screen for AddAB inhibitor project, absorbance, V66 E. coli, mutant T4 phage (AID 492957); type: functional, cell-based, Escherichia coli str. K-12 substr. MG1655
T1 sequence (P04993 whole entry): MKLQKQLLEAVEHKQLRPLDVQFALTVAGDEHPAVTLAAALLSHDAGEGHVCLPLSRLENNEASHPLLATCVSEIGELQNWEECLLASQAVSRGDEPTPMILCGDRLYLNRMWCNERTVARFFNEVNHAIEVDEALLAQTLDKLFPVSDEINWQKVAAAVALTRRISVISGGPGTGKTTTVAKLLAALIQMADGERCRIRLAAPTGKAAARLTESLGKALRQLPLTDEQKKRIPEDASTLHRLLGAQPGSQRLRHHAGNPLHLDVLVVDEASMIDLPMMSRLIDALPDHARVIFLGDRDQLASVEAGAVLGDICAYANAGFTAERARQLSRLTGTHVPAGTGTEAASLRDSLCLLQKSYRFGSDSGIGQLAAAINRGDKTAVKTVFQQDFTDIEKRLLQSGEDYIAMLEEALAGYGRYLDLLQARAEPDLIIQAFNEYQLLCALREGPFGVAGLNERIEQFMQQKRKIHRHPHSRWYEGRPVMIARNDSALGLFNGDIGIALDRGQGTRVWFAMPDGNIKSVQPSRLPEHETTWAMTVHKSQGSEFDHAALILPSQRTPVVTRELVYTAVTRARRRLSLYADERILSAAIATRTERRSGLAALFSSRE
T1 sequence (P07648 whole entry): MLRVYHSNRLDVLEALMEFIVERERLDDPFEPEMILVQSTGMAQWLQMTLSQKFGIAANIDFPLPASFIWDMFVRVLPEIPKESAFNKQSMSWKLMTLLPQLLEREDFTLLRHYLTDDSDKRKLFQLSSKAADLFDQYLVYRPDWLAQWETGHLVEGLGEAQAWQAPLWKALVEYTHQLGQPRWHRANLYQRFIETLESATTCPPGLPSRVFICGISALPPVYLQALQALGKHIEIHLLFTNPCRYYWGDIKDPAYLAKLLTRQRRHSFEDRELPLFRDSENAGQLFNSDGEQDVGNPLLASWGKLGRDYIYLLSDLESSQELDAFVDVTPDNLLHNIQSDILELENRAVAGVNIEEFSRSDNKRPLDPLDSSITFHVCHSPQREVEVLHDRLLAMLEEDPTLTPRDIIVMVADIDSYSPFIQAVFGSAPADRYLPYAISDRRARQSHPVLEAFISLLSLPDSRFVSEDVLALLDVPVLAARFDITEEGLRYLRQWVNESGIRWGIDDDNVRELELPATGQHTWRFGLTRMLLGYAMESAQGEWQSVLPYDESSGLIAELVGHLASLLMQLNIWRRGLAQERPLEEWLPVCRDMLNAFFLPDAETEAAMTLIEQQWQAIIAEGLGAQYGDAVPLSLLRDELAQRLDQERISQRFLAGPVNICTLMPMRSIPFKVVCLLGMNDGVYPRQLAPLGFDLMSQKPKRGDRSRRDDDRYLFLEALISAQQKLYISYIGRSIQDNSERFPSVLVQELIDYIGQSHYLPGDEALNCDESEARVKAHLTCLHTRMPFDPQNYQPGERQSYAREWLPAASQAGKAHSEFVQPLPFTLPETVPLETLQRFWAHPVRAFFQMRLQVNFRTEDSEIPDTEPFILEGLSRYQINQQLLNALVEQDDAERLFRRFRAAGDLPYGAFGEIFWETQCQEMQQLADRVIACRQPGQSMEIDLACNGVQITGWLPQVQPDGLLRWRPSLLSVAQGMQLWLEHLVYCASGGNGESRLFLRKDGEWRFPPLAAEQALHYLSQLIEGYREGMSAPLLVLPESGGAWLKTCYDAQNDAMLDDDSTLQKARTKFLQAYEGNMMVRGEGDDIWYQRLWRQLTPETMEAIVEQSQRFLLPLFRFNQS
T1 sequence (P08394 whole entry): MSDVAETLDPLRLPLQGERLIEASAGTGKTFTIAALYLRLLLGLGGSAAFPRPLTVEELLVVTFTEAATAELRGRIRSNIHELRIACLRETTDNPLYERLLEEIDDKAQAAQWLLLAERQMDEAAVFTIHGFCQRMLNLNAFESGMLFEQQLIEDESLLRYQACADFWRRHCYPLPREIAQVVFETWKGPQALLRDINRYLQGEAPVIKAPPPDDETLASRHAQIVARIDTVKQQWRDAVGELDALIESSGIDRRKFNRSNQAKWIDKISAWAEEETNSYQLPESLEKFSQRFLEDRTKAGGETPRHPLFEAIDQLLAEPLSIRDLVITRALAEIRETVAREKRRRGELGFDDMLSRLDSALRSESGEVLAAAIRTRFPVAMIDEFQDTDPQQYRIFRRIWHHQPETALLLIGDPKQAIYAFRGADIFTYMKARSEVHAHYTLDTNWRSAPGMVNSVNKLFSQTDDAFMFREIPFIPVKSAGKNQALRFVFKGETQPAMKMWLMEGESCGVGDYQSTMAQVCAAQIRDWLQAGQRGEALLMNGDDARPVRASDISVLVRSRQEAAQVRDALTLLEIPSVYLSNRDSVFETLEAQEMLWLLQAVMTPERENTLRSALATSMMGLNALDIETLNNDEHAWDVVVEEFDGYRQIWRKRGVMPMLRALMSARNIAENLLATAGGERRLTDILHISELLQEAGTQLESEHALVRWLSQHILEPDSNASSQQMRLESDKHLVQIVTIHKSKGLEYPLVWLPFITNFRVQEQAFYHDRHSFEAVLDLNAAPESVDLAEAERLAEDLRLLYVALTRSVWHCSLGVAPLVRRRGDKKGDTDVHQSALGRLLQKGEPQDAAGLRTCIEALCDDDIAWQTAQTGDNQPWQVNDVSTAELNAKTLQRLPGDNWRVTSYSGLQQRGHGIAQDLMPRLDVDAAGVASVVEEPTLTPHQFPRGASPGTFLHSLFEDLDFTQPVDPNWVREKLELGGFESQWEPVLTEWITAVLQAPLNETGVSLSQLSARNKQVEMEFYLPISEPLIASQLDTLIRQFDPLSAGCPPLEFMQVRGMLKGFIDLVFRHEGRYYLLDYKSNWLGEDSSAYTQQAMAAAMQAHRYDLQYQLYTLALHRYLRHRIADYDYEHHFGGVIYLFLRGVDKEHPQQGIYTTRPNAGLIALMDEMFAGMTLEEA

SUMO-activating enzyme [7] = target: T2, SUMO-activating enzyme (Homo sapiens, UniProt Q9UBT2); test: SUMOylation inhibitor hit validation, confirmation, SUMOylation inhibitor project, biochemical, AlphaScreen (AID 2018); type: functional
[8] = control 3'UTR Renilla luciferase suppression, dose response, counter-screen for Shn3 inhibitor project, cell-based, Clone20-Shn3RL, cherry-picked (AID 624133); type: functional
SUMO-activating enzyme [9] = target: T2, SUMO-activating enzyme; test: inhibitors of in vitro SUMOylation cascade, primary screen, biochemical, HTRF, uHTS (AID 2006); type: protein-complex assay
[10] = HepG2 cell cytotoxicity, dose response, cytotoxicity control for Shn3 inhibitor project, CellTiter-Glo, cherry-picked (AID 624134); type: functional, cell-based
[11] = target: T3, Mannose-6-phosphate isomerase (Homo sapiens, UniProt P34949); test: inhibitors of human PMI, primary screen, biochemical, fluorescence intensity, coupled assay (AID 1209)
T3 sequence (P34949 whole entry): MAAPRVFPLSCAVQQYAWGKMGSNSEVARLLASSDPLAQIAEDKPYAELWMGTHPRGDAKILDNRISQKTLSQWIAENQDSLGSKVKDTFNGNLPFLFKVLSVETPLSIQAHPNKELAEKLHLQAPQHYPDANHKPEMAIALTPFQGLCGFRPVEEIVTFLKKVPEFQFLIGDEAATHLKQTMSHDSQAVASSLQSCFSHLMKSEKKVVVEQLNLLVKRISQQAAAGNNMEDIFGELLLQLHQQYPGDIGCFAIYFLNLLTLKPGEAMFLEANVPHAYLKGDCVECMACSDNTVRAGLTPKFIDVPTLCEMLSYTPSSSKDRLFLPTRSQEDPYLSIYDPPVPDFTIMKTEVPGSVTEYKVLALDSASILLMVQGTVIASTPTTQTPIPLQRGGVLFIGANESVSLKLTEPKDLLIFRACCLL

[12] = cytotoxicity toward NIH3T3 fibroblasts, dose response, counter-screen, cell-based, ATP luminescence, mouse fibroblasts (AID 2010); type: functional;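 further: cells exposed to compound for about 90 hours before reading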
Kallikrein-7 = Kallikrein-7 (Homo sapiens, UniProt P49862); test: Fluorescence Intensity-based biochemical primary high throughput dose response assay to identify activators of kallikrein-7 (K7) zymogen.
[13] = target: T4, Small ubiquitin-related modifier 1 (Homo sapiens, UniProt P63165); test: inhibitors of SUMO1 partner interactions, dose response, biochemical, FRET (AID 624383); type: functional; conditions: read-out: IC50_Mean
cells [14] = test: cells
[15] = Luminescence Cell-Based Dose Retest to Confirm Inhibitors of Cancer Stem Cells. [Related pubchem assays (depositor defined):AID2717, AID2721]; type: functional; conditions: Homo sapiens
[16] = target: Luciferin 4-monooxygenase (Photinus pyralis, UniProt P08659); test: firefly luciferase enzyme inhibitors, dose response, biochemical, luminescence (AID 1891)
[17] = Luminescence Cell-Based Dose Confirmation HTS to Identify Inhibitors of Platelet Dense Granule Release. [Related pubchem assays: 1663 (Primary HTS), 1678 (Summary of Project)]; type: functional
[18] = target: T4, Small ubiquitin-related modifier 1; test: inhibitors of SUMO1 peptide binding, dose response, biochemical, fluorescence polarization, uHTS hits (AID 624382); type: functional; conditions: read-out: IC50_Mean
[19] = inhibitors of intracellular T. cruzi replication, confirmation, NIH3T3 host cells, beta-gal luminescence (AID 2044); type: functional, cell-based;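 further: intracellular parasites grown in NIH/3T3 mouse fibroblasts as host cells; luminescent beta-galactosidase reporter signal from transgenic T. cruzi replicating inside host cells; inhibitors lower the luminescence signal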
[20] = target: T5, Low molecular weight phosphotyrosine protein phosphatase (Homo sapiens, UniProt P24666); type: functional; conditions: read-out: IC50_Mean
T5 sequence (P24666 whole entry): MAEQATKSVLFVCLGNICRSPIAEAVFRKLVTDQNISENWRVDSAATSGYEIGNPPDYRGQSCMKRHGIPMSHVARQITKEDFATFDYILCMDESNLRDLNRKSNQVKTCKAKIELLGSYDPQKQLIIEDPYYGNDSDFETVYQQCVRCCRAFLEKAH

[21] = target: T5, Low molecular weight phosphotyrosine protein phosphatase; type: functional; conditions: read-out: IC50_Mean; remark: listed apart in the source
H4 = test: Luminescence Cell-Based Dose Response HTS to Identify Activators of 5'UTR Stem-Loop Driven Prion Protein mRNA Translation in H4 Neuroglioblastoma Cells. [Related pubchem assays: 1829 (Project Summary), 1814 (Primary HTS)]; type: functional; conditions: Homo sapiens

T2 sequence (Q9UBE0 whole entry): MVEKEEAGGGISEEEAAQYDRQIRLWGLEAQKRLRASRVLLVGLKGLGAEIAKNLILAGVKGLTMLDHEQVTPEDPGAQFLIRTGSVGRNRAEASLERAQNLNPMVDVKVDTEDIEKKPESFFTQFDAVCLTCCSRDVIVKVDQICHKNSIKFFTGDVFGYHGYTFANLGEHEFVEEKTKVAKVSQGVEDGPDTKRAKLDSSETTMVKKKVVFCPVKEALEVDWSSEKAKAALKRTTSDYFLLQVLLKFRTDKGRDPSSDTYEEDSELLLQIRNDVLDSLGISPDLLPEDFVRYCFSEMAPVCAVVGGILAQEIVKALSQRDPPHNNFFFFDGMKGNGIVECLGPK
T2 sequence (Q9UBT2 whole entry): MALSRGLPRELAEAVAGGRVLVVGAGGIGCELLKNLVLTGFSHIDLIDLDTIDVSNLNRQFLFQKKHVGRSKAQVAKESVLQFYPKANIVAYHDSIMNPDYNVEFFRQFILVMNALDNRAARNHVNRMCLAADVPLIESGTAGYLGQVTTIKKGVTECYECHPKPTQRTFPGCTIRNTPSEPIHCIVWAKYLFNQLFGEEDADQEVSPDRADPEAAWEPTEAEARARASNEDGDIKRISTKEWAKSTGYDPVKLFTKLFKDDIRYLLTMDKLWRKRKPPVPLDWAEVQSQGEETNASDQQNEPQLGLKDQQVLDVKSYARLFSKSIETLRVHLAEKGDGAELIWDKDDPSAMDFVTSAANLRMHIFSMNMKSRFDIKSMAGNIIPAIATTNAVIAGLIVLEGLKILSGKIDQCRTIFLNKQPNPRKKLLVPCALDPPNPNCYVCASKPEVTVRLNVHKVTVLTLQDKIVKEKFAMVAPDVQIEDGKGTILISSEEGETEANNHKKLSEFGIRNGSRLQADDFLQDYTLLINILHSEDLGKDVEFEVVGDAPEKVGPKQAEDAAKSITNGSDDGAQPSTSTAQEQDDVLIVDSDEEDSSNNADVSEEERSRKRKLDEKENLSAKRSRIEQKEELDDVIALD
T4 sequence (P63165 whole entry): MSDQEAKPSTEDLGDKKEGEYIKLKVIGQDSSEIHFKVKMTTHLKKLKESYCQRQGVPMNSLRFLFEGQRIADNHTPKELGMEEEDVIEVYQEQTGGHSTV
Sequence of Intestinal-type alkaline phosphatase (P09923 whole entry): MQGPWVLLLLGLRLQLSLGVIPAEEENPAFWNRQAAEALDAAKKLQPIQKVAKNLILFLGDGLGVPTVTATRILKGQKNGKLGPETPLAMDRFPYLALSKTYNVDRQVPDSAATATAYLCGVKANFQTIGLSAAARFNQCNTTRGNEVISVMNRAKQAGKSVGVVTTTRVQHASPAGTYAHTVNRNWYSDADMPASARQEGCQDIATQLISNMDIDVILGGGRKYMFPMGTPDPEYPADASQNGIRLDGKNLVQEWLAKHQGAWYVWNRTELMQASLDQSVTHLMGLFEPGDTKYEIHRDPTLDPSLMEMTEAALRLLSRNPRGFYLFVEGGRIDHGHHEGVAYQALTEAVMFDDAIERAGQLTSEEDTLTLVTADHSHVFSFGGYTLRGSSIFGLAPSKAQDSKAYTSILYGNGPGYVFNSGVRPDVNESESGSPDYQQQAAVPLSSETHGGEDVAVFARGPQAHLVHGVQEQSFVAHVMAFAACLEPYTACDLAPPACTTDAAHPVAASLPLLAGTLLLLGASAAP
Sequence of Induced myeloid leukemia cell differentiation protein Mcl-1 (Q07820 whole entry): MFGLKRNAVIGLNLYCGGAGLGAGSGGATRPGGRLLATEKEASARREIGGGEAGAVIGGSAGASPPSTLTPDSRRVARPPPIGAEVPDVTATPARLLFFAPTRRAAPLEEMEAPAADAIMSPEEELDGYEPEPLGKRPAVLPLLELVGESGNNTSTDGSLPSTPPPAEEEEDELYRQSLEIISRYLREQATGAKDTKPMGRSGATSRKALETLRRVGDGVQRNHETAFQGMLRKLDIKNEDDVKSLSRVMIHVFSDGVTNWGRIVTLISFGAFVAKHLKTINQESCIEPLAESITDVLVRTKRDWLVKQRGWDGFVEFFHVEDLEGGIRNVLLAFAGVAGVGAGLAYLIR
Sequence of Kallikrein-7 (P49862 whole entry): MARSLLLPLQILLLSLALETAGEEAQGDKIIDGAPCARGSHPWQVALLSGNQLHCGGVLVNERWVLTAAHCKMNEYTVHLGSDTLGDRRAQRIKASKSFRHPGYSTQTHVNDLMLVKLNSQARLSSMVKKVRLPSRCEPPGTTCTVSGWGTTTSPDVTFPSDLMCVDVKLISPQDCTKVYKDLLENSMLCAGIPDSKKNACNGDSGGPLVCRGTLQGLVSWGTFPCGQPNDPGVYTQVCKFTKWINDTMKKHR
Sequence of Luciferin 4-monooxygenase (P08659 whole entry): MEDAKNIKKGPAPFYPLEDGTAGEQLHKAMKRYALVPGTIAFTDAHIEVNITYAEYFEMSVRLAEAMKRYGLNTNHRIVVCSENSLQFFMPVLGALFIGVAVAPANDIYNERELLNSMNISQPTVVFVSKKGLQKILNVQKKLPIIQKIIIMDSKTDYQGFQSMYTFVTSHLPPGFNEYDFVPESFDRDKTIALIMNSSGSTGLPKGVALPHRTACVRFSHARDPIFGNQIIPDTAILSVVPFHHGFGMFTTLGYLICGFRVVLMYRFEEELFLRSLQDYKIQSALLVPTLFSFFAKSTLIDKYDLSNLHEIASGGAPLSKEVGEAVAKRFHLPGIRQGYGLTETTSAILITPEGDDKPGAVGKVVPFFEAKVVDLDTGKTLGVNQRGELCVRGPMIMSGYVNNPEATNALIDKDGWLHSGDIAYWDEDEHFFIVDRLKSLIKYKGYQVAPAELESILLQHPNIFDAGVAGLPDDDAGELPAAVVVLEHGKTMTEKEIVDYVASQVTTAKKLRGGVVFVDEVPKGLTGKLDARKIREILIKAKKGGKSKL

Structure (SMILES): O=C(O)COn1c(-c2ccc(Cl)cc2)nc2ccc(Cl)cc21
- IC50 [1]: > 100 µM (inactive)

Structure (SMILES): O=C1CC(N2CCN(S(=O)(=O)c3ccccc3)CC2)C(=O)N1c1ccccc1 (configuration not stated)
- IC50 [2]: 9.4 µM (not active)

Structure (SMILES): CCCCC(=O)NC(c1ccccc1Cl)c1ccc2cccnc2c1O (configuration not stated)
- AC50 (INS1): 645 nM (active)
- EC50 (cells [3]): > 350 µM (not active)
- IC50 [4]: > 119 µM (inactive)
- EC50 (cells [5]): 8.93 µM (active)
- AC50 [6]: 1.12 µM (active)
- IC50 (Exodeoxyribonuclease V): > 119 µM (inactive)
- IC50 (SUMO-activating enzyme [7]): 9.96 µM (active)
- AC50 [8]: 856 nM (active)
- IC50 (SUMO-activating enzyme [9]): > 100 µM (inactive)
- AC50 [10]: 3.56 µM (active)

Structure (SMILES): CC1=NN2C(=N)/C(=C\c3ccc(SCc4ccccc4)o3)C(=O)N=C2S1
- IC50 [11]: > 50 µM (not active)

Structure (SMILES): O=C(Nc1ccc2c(c1)OCO2)c1cc(-c2ccc(O)cc2)on1
- EC50 [12]: 6.74 µM (active)
- EC50 (Kallikrein-7): 62.9 µM (inactive)
- IC50 [13]: 11.5 µM (active)
- EC50 (cells [14]): > 10 µM (not active)
- AC50 [15]: 356 nM (active)
- EC50 [16]: > 112 µM (not active)
- EC50 [17]: > 112 µM (not active)
- IC50 [18]: > 66.6 µM (inactive)
- EC50 [19]: < 100 nM (active)

Structure (SMILES): O=c1c(Cl)c(N/N=C/c2ccc(Cl)cc2)cnn1-c1ccccc1
- IC50 [20]: > 80 µM (inactive)
- IC50 [2]: 1.93 µM (active)
- IC50 [21]: 35 µM (inactive)
- EC50 (H4): > 120 µM (not active)

Structure (SMILES): Cc1cc(C)n(C(=O)C23CC4CC(CC(C4)C2)C3)n1
- IC50 [1]: > 100 µM (inactive)
